Where two headings read alike, the source gives them in different places.
What was measured:
[1] = system: VEGF transcripts in THP-1 cells; test: PCR and Southern blot analysis of steady state VEGF mRNA in THP-1 cells; type: cell-based, human
[2] = Serum concentration of relaxin in ongoing clinical trials; type: in vivo, human
Method: While human dosage levels for treating depression have yet to be optimized for relaxin, generally, a daily dose is from about […] of body weight per day, preferably about […] μg/kg, and most preferably about 12.0 to 100.0 μg/kg. Generally it is sought to obtain a serum concentration of relaxin approximating or greater than normal circulating levels in pregnancy, i.e., 1.0 ng/ml, such as 0.5 to 50 ng/ml, preferably 1.0 to 20 ng/ml. […] Thus, for administration to a 70 kg person, the dosage range would be about 7.0 μg to 3.5 mg per day, preferably about […] to 2.1 mg per day, and most preferably about […] per day. The amount of relaxin administered will, of course, be dependent on the subject and the severity of the affliction, the manner and schedule of administration and the judgment of the prescribing physician.

[3] = system: mouse dorsum (matrigel plug); test: Murine matrigel subcutaneous insert vascularization assay; type: in vivo
Method: (§1) In vivo activity for angiogenesis is determined by the rabbit corneal injection protocol and by the matrigel subcutaneous insert vascularization protocol.
Matrigel (Collaborative Biomedical, Bedford, Mass.) is a reconstituted basement membrane complex containing primarily laminin and type IV collagen. It is isolated from the Engelbreth-Holm-Swarm (EHS) murine tumor. At room temperature, matrigel is liquid; but when injected subcutaneously into a mouse it reconstitutes as a gel.
Test substance is mixed with matrigel (1%v/v media in 1 cc matrigel) at room temperature and then injected subcutaneously into a mouse dorsum (5 month old female Swiss-Webster). After one week, the mouse is sacrificed and the gel plug(s) harvested. Samples are fixed in buffered formalin, paraffin embedded, sectioned (4 μ) and H&E stained. The samples are scored 1 (positive), 0.5 (indeterminate) or 0 (negative).

THP-1 cells [4] = test: VEGF protein secretion by THP-1 cells (ELISA of conditioned media); type: cell-based, human; details: for inhibition of relaxin-induced VEGF stimulation: PKA inhibitors used at or above their Ki doses, ELISA, data not shown; for VEGF induction: 17 nM (equivalent molar concentration to relaxin)
THP-1 cells [5] = test: Other effects on THP-1 cells (morphology, thymidine uptake, metalloproteinase expression, nitric oxide production); type: cell-based, human
THP-1 cells [6] = test: cAMP levels in THP-1 cells; type: cell-based, human
rabbit corneal stroma = test: Rabbit corneal assay (neo-capillary growth toward implanted hydron disc); type: in vivo
Method: as §1
Test and control material is mixed with hydron into a 0.1 cc disc (resembling a small contact lens). The disc is implanted into a rabbit corneal stroma micro pocket using appropriate anesthesia for the procedure. After one week, neo-capillary growth toward the disc is measured and scored (0-4) utilizing a standard anatomic grading scale. A score of 0 means no growth. A score of 1 means capillaries (one or two) just entering the corneal stroma from the limbus toward the pocket. A score of 3 means vessels have grown to the base of the implant. A score of 4 means vessels have grown around the implant.

relaxin
time at which increase of VEGF transcripts is detectable ([1]; 10 ng/ml): 30 min
increase of VEGF121, 165 and 189 PCR bands ([1]; 10 ng/ml, by 2 hours): roughly 2 fold
intensity of VEGF transcript bands on Southern blot ([1]; 100 ng/ml): intensity of all bands is increased
serum concentration ([2]; dosage about 6.0 μg/kg, ±0.3): about 1.8 ng/ml
serum concentration ([2]; dosage about 12.0 μg/kg, ±0.6): ~3.6 ng/mL
serum concentration ([2]; dosage about 50 μg/kg, ±1.6): ~11.8 ng/mL
angiogenic activity (conclusion) ([3]; murine matrigel assay): angiogenic
mean score of gel plugs (1 positive, 0.5 indeterminate, 0 negative) ([3]; subcutaneous matrigel in mouse, after one week, standard error 0.1, control 0.3, P 0.02): 0.8
time course of VEGF in conditioned media (THP-1 cells [4]; 1 ng/ml and 100 ng/ml): increased in the conditioned media in roughly linear fashion up to at least 72 hours
VEGF protein secretion (dose dependence) (THP-1 cells [4]; 0.04-50 ng/ml, 8 hours): dose dependent manner
Net VEGF Expr (THP-1 cells [4]; Exp 2, 10 ng/ml, 8 h, net of placebo, mean ± SEM): 161 ± 19 pg/mL
relaxin concentration at which VEGF protein secretion peaks (THP-1 cells [4]; doses 0.04-50 ng/ml, 8 hours): 1 ng/mL
morphological changes (adherence to plastic, clumping) (THP-1 cells [5]): no observable morphological changes
cAMP levels (THP-1 cells [6]; relaxin treatment, dose not given): causes an increase in cAMP
mean score of neo-capillary growth toward the disc (0-4 anatomic grading scale) (rabbit corneal stroma; disc in rabbit corneal stroma micro pocket, after one week, n=8, standard error 0.5, placebo 0.6, P 0.08): 1.5
angiogenic activity (conclusion) (rabbit corneal stroma; rabbit corneal assay): angiogenic

CCCC(=O)Nc1nc2c(ncn2[C@@H]2O[C@@H]3COP(=O)(O)O[C@H]3[C@H]2OC(=O)CCC)c(=O)[nH]1 [dbcGMP, dibutyryl cGMP]
Net VEGF Expr (THP-1 cells [4]; Exp 3, 10^−6M-10^−4M (each dose), 8 h, net of placebo): -0- pg/ml

O=S(=O)(NCCNC/C=C/c1ccc(Br)cc1)c1cccc2cnccc12 [H-89]
inhibition of relaxin-induced VEGF stimulation (THP-1 cells [4]): failed to completely inhibit VEGF stimulation

CCCCCCOC(=O)[C@]1(O)C[C@@H]2O[C@@]1(C)n1c3ccccc3c3c4c(c5c6ccccc6n2c5c31)C(=O)NC4 [KT5720]
inhibition of relaxin-induced VEGF stimulation (THP-1 cells [4]): failed to completely inhibit VEGF stimulation

Nc1ncnc2c1ncn2C1CCCO1 (stereo not shown) [SQ22536]
inhibition of relaxin-induced VEGF stimulation (THP-1 cells [4]): failed to completely inhibit VEGF stimulation

IGF-II: member of the relaxin family (Promega)
VEGF induction (THP-1 cells [4]): Neither IGF-I and IGF-II induced VEGF production

insulin: member of the relaxin family, compared at 17 nM
VEGF expression relative to that induced by relaxin (THP-1 cells [4]; 17 nM): roughly 30%

IGF-I: member of the relaxin family (Promega)
VEGF induction (THP-1 cells [4]): Neither IGF-I and IGF-II induced VEGF production

C[C@@H]1C[C@@H]([C@H](O)CC2CC(=O)NC(=O)C2)C(=O)[C@@H](C)C1 [cycloheximide, reference compound]
effect on relaxin-induced increase of VEGF transcripts ([1]; added with recombinant human relaxin (H2)): did not interfere with or amplify this increase

C[C@]12CC[C@@H]3c4ccc(O)cc4CC[C@H]3[C@@H]1CC[C@@H]2O [17-β-estradiol]
effect on relaxin VEGF stimulation compared to relaxin alone (THP-1 cells [4]; 1 μM, simultaneously with relaxin or 48 hours pretreatment): Neither treatment protocol resulted in a difference in VEGF stimulation

CCCCCCCCCCCCCC(=O)O[C@@H]1[C@@H](C)[C@@]2(O)[C@@H](C=C(CO)C[C@]3(O)C(=O)C(C)=C[C@@H]23)[C@@H]2C(C)(C)[C@]12OC(C)=O [PMA, reference compound]
Net VEGF Expr (THP-1 cells [4]; Exp 5, 1 ng/ml, 8 h, net of placebo, mean ± SEM): 342 ± 18 pg/mL
cAMP levels (THP-1 cells [6]; 1 ng/ml, data not shown): does not increase cAMP levels

CCCC(=O)Nc1ncnc2c1ncn2[C@@H]1O[C@@H]2COP(=O)(O)O[C@H]2[C@H]1OC(=O)CCC [dbcAMP, Dibutyryl cAMP]
Net VEGF Expr (THP-1 cells [4]; Exp 3, 10^−4M, 8 h, net of placebo, mean ± SEM): 488 ± 27 pg/mL
Net VEGF Expr (THP-1 cells [4]; Exp 3, 10^−5M, 8 h, net of placebo, mean ± SEM): 142 ± 26 pg/mL
Net VEGF Expr (THP-1 cells [4]; Exp 3, 10^−6M, 8 h, net of placebo): -0- pg/ml

CC(C)Cn1c(=O)n(C)c(=O)c2[nH]cnc21 [IBMX, isobutylmethylxanthing]
Net VEGF Expr (THP-1 cells [4]; Exp 1, 50 × 10^−6M, 24 h, net of placebo-treated control, mean ± SEM): 154 ± 46 pg/mL
Net VEGF Expr (THP-1 cells [4]; Exp 2, 50 × 10^−6M, 8 h, net of placebo, mean ± SEM): 209 ± 20 pg/mL

Cholera toxin
Net VEGF Expr (THP-1 cells [4]): 1278 ± 106 pg/mL

Pertussis toxin
Net VEGF Expr (THP-1 cells [4]; Exp 4, 1 μg/ml, 8 h, net of placebo, mean ± SEM): -0- pg/ml
